{
  "source": "patent US20190307754A1",
  "about": "“PDE9 INHIBITORS FOR TREATMENT OF PERIPHERAL DISEASES” (IMARA, INC., priority 2016, published 2019)",
  "key": {"[1]": {"test_system": "K562 erythroleukemic cells", "experiment": "cGMP in cultured K562 cells", "assay_type": "cell-based", "settings": "16 hours", "protocol": "Hydroxyurea was included as a comparator as it is currently the only FDA approved treatment for this disease (Charache et al., N Engl J Med., 332(20):1317-22. (1995)). One of the proposed mechanisms of action of HU in SCD is that it may generate NO and modulation of intracellular levels of the NO second messenger, cGMP, may represent an effective and cell-specific approach for amplifying intracellular NO-dependent signaling.\nK562 cells were cultured at 37° C. in IMDM® to which the required concentrations of test items or dimethyl sulfoxide (DMSO; negative Control) had been added. Plated cells were maintained at 37° C. for 16 hours at the end of which the amount of cGMP was detected by enzyme immunoassay."}, "[2]": {"test_system": "CD34+ derived red blood cells from SCD subjects", "settings": "5 days"}, "[3]": {"test_system": "K562 erythroleukemic cells", "experiment": "HbF in cultured K562 cells", "assay_type": "cell-based", "settings": "3 days", "protocol": "K562 cells were cultured at 37° C. in IMDM® to which the required concentrations of test items or DMSO (negative control) had been added. Plated cells were maintained at 37° C. for 3 days at the end of which the presence of HbF within cells was detected by flow cytometry."}, "[4]": {"test_system": "TNF-α activated human endothelial cells", "experiment": "Micro-channel PMN adhesion assay under flow (FIG. 9)", "assay_type": "cell-based", "text": "In this study, the effects of Compound P3.1 on PMN adhesion to TNF-α activated human endothelial cell monolayers under flow conditions are investigated. It has been validated in vitro dynamic assay mimics neutrophil recruitment to endothelial cell monolayers under inflammatory conditions (TNF-α activation). In this assay, both control and sickle PMNs adhere to endothelial cells but to different degrees, reflecting in vivo conditions. The human dermal microvascular endothelial cell line HMEC-1 is used in this approach. The potential inhibitory effect of Compound P3.1 is tested in parallel and compared with the effect of HU and other PDE9 inhibitors.\nIn a first step, the effects of 1 uM Compound P3.1 and 10 uM HU were tested by incubating blood samples from healthy volunteers (n=3-6) (i.e., donors or donor cells) with these molecules.\nAdhesion of PMNs from healthy volunteers was assessed under flow conditions, mimicking blood flow, in micro channels (Venaflux, Cellix, Ireland) coated with endothelial cell monolayers cultivated under inflammatory conditions. The adhesion assay was performed with whole fresh blood, previously incubated or not with Compound P3.1, to be closer to the physiological condition of circulation in a person, and to study the interaction between the different blood cells with PMNs."}, "[5]": {"test_system": "Berkeley sickle cell transgenic mice", "experiment": "HbF positive and sickled red blood cells in Berkeley sickle cell transgenic mice", "assay_type": "in vivo", "settings": "30 mg/kg/day Compound P3.1 or 100 mg/kg/day HU, gavage, 30 days", "protocol": "This study assessed the effects of chronic dosing (30 day) of Compound P3.1 and HU on HbF and cell sickling in a mouse model of sickle cell disease. Berkeley sickle cell transgenic mice (Hbatm1PazHbbtm1Tow Tg(HBA-HBBs)41Paz/J) were divided into groups of 7 to 8 animals and were dosed once daily, by gavage, for 30 days with either vehicle (PEG:water), 30 mg/kg/day of Compound P3.1, or 100 mg/kg/day of HU. This mouse genotype mimics the genetic, hematologic and histopathologic features that are found in humans afflicted with sickle cell anemia, including irreversibly sickled RBCs, anemia and multi-organ pathology. Blood was collected from treated animals on Day 30 for limited routine hematology as well as derivation of the percent of sickled and HbF positive RBCs and total bilirubin. At termination, the spleen was removed and weighed."}, "[6]": {"test_system": "TNF-α activated endothelium", "experiment": "Micro-channel assay of platelet, PMN and RBC binding (FIG. 10)", "assay_type": "cell-based, human", "settings": "Compound P3.1 2 or 3 hours, HU 3 hours; bound cells at 30 min", "protocol": "In another assay, using the same method, the reduction of PMN and RBC bindings to TNF-α activated endothelium in a micro channel well was confirmed. Platelet, PMN, and RBC in blood samples from 5 healthy normal volunteers (donors) were labelled with fluorescent dyes. The blood samples were incubated with Compound P3.1 for 2 hours or 3 hours, or HU for 3 hours, prior to running them on micro channels that were previously coated with endothelial cells activated with TNF-α. The % of bound cells was quantified at 30 min. Results are shown in FIG. 10A, FIG. 10B, and FIG. 10C."}, "HbSS-Townes mice": {"test_system": "HbSS-Townes mice", "experiment": "Microvascular stasis and hematology in HbSS-Townes mice", "assay_type": "in vivo", "protocol": "The ability of Compound P3.1 to reduce vaso-occulsion was assessed in HbSS-Townes transgenic sickle mice after transient hypoxia and re-oxygenation. This study assessed the effects of repeated (10 days) oral dosing of Compound P3.1 and HU on microvascular stasis and other hematological markers of sickle cell disease, after transient hypoxia and re-oxygenation, in Townes transgenic sickle mice, a mouse model of sickle cell disease (Hba^tm1(HBA)Tow Hbb^tm2(HBG1,HBB*)Tow/Hbb^tm3(HBG1,HBB)Tow/J). HbSS-Townes mice were divided into groups of 3 mice and were then dosed orally via drinking water with Compound P3.1 at 10 mg/kg/day, Compound P3.1 at 30 mg/kg/day, HU (100 mg/kg/day), or a combination of Compound P3.1 and HU (at doses of 30 and 100 mg/kg/day, respectively) for 10 days. A final group received water containing 0.08% methylcellulose, the vehicle used to prepare the test items, and served as controls. On Day 7 of treatment, the mice were implanted with dorsal skin-fold chambers (DSFC), and on Day 10 of treatment, 20-23 flowing subcutaneous venules in the DSFC window were selected and mapped. After venule selection and mapping, mice were placed in a chamber and exposed to a hypoxic atmosphere (7% O2/93% N2) for 1 hour, after which they were returned to room air. All of the selected venules were re-examined after 1 and 4 hours of re-oxygenation in room air and the number of static (no flow) venules was counted and expressed as percent stasis. On completion of these measurements, blood was collected for clinical pathology with a focus on hematological measures associated with sickle cell disease."}, "PDE1": {"test_system": "PDE1", "experiment": "PDE1 inhibition assay", "assay_type": "biochemical", "protocol": "Reactions were initiated by addition of the cyclic nucleotide substrate, and reactions were allowed to proceed for 1 h at room temperature before being terminated through mixing with 20 μL (0.2 mg) yttrium silicate SPA beads (PerkinElmer)."}, "C57Bl/6J mice": {"test_system": "C57Bl/6J mice", "experiment": "Locomotor activity and contextual fear conditioning in C57Bl/6J mice", "assay_type": "in vivo", "settings": "gavage, 5 days", "protocol": "The exposure of both compounds was also evaluated in the plasma, brain, and eye. […] During the treatment period all animals were assessed for contextual fear conditioning and a subset of 7 animals per group was evaluated for locomotor activity. On Day 5, plasma, brain, and eye tissue were collected 30 minutes after dosing from 3 animals per treated group to measure concentrations of test item."}, "[7]": {"settings": "Compound P3.1 30 mg/kg/day, HU 100 mg/kg/day, or both, 10 days"}},
  "data": [
    {"compound": "NC(=O)NO", "note": "[Hydroxyurea, reference compound]", "values": [
      {"measurement": "effect on cGMP levels", "setting": "[1]", "result": "dose-dependent and statistically significant increases in cGMP levels"},
      {"measurement": "amount of HbF within cells (mean MFI)", "setting": "[2]; 30 μM HU, remaining 3 subjects", "result": "19,383"},
      {"measurement": "mean MFI of HbF relative to controls", "setting": "[2]; 30 μM HU, remaining 3 subjects", "result": 258, "unit": "%"},
      {"measurement": "percentage of HbF positive CD36+ cells (mean)", "setting": "[2]; 30 μM HU, remaining 3 subjects", "result": 23.9, "unit": "%"},
      {"measurement": "cell death", "setting": "[2]; human, 30 μM", "result": "greater than 80%"},
      {"measurement": "viability", "setting": "[2]; human, 30 μM", "result": "< 80", "unit": "%"},
      {"measurement": "HbF positive cells", "setting": "[3]; 100 μM", "result": 92.6, "unit": "%"},
      {"measurement": "effect on HbF-positive cells by concentration", "setting": "[3]", "result": "statistically significant increases in HbF-positive cells at concentrations of 10 μM and above (but not at 1 and 3 μM)"},
      {"measurement": "adhesion of high-binding donor cells", "setting": "[4]; 1 uM Compound P3.1 or 10 uM HU, whole blood of healthy volunteers", "result": "reduced the binding of 2 of 3 of the high binding donors"},
      {"measurement": "toxicity to donor samples", "setting": "[4]; 10 uM HU", "result": "3 of 9 of the donor samples did not survive HU treatment"},
      {"measurement": "RBC count, hemoglobin concentration or hematocrit", "setting": "[5]", "result": "not associated with any apparent alterations"},
      {"measurement": "neutrophil levels", "setting": "[5]", "result": "reduced neutrophil levels"},
      {"measurement": "spleen weight", "setting": "[5]", "result": "statistically significant decreases"},
      {"measurement": "total bilirubin", "setting": "[5]", "result": "statistically significant decreases"},
      {"measurement": "total leucocyte count", "setting": "[5]", "result": "statistically significant decreases"},
      {"measurement": "percentage of HbF positive RBCs", "setting": "[5]; vs controls", "result": "increases in the percentage of HbF positive RBCs"},
      {"measurement": "percentage of sickled RBCs", "setting": "[5]; vs controls", "result": "statistically significant decreases in the percentage of sickled RBCs"},
      {"measurement": "platelet binding", "setting": "[6]", "result": "did not impact platelet binding"},
      {"measurement": "microvascular stasis", "setting": "HbSS-Townes mice; 30 mg/kg/day Compound P3.1 or 100 mg/kg HU, drinking water, 10 days, 1 and 4 hours post hypoxia", "result": "statistically significant reductions in stasis"},
      {"measurement": "total WBC numbers", "setting": "HbSS-Townes mice; Compound P3.1 30 mg/kg/day or HU 100 mg/kg/day, 10 days", "result": "reduce total WBC numbers"},
      {"measurement": "vessel occlusion induced by transient hypoxia and re-oxygenation", "setting": "HbSS-Townes mice; Compound P3.1 30 mg/kg/day, HU 100 mg/kg/day, or both", "result": "effectively reduced"},
      {"measurement": "number of HbF positive red cells", "setting": "HbSS-Townes mice; [7]", "result": "increase the number of HbF positive red cells"},
      {"measurement": "proportion of sickled RBCs", "setting": "HbSS-Townes mice; [7]", "result": "reduce the proportion of sickled RBCs"}
    ]},
    {"compound": "C[C@@H]1CN(Cc2ncccn2)C[C@H]1c1nc2c(cnn2C2CCOCC2)c(=O)[nH]1", "note": "(single isomer, unassigned) [AF27873]", "values": [
      {"measurement": "IC50", "setting": "PDE1", "result": 2.5, "unit": "µM"},
      {"measurement": "conditioned freezing vs vehicle controls", "setting": "C57Bl/6J mice; 10 mg/kg/day", "result": "significantly (p<0.05) more conditioned freezing"},
      {"measurement": "conditioned freezing vs vehicle controls", "setting": "C57Bl/6J mice; 30 mg/kg/day", "result": "not observed"}
    ]}
  ]
}
